{"source": "paper PMC9921564", "about": "“Novel Indole-Containing Hybrids Derived from Millepachine: Synthesis, Biological Evaluation and Antitumor Mechanism Study” (Molecules, 2023)", "test_system": "caspase 3", "assay": "caspase 3 activity evaluation", "format": "cell-based, human", "settings": "A549, 10, 20 and 50 nM", "description": "To further elucidate the mechanism of cell death caused by the cytotoxicity of compound 14b, the Hoechst 33342 fluorochrome was used to observe the nucleus morphology, Annexin V-FITC double staining was performed to distinguish the apoptotic cells, and the caspase 3 colorimetric assay kit was used to detect the activity of caspase 3. […] At the early stage of apoptosis, different types of cells turn phosphatidylserine (PS) out toward the cell surface, that is, the outside of the cell membrane, which can be selectively marked with Annexin V. Additionally, in the late stage of apoptosis, the integrity of cell membrane is lost and can be stained with PI. […] Finally, considering the activation of caspase 3 is a central event in the process of apoptosis, the activity of caspase 3 was also evaluated.\nFigure 4 Induction of apoptosis by compound 14b. […] (B) The percentages of cells in each apoptosis quantitated by flow cytometry through Annexin V-FITC double staining analysis. […] (C) The caspase 3 activity detected by the caspase 3 colorimetric assay kit after A549 cells were treated with compound 14b at concentrations of 10, 20 and 50 nM for 24 h. […]\nsamples were fixed in ice-cold 70% ethanol overnight and removed with ice-cold PBS for three times. […] After the incubation, the prepared cell samples were immediately analyzed. […]"}
{"smiles": "COc1ccc(C(=O)c2ccc3c(ccn3C)c2)c2c1C=CC(C)(C)O2", "note": "[compound 14b, (5-methoxy-2,2-dimethyl-2H-chromen-8-yl)(1-methyl-1H-indol-5-yl)methanone]", "values": [{"measurement": "activity of caspase 3", "result": "significantly activated and increased in a dose- and time-dependent manner"}]}
